Assays:
riboswitch 15D10 [1] = assay: Luciferase reporter with 15D10 riboswitch (Luci-15D10) in HEK 293 cells; assay type: cell-based, human; conditions: HEK 293 cells; for fold induction at 50 µM: Homo sapiens, HEK293, 24 h, read-out: Fold increase in riboswitch 15D10-regulated luciferase expression, HEK
Experimental: Transfection: 3.5×10^4 human embryonic kidney (HEK) 293 cells were plated in a 96-well flat bottom plate the day before transfection. Plasmid DNA (500 ng) was added to a tube or a 96-well U-bottom plate. […] Then, 50 μL of this diluted transfection reagent was added to the DNA, mixed, and incubated at RT for 20 min. Finally, 7 μL of this solution was added to a well of cells in the 96-well plate. Four hours after transfection, medium containing transfection solution was replaced by medium containing either TPP, fursultiamine, prosultiamine, bisbentiamine, beclotiamine hydrochloride, or sulbutiamine as aptamer inducers.
Firefly luciferase assay of cultured cells: Twenty-four hours after media change, plates were removed from the incubator, and equilibrated to RT for several minutes on a lab bench, then aspirated. Glo-lysis buffer (Promega, 100 μL, RT) was added, and the plates allowed to remain at RT for at least 5 minutes. Then, the well contents were mixed by 50 μL trituration, and 20 μL of each sample was mixed with 20 μL of bright-glo reagent (Promega) that had been diluted to 10% in glo-lysis buffer. 96 wells were spaced on an opaque white 384-well plate. Following a 5 min incubation at RT, luminescence was measured using a Tecan machine with 500 ms read time. The luciferase activity was expressed as mean arbitrary light units (ALU)±S.D., and fold induction was calculated as the quotient of the luciferase activity obtained from cells with TPP or analog treatment divided by the luciferase activity obtained from cells without TPP or analog treatment.

riboswitch 15D10 [2] = assay: Luciferase reporter with 15D10 riboswitch (Luci-15D10) in AML12 cells; assay type: cell-based, mouse; conditions: for fold induction at 50 µM: Mus musculus, AML12, 24 h, AML12 cells, read-out: Fold increase in riboswitch 15D10-regulated luciferase expression, AML

Row | Compound | fold induction at 50 µM (riboswitch 15D10 [1]; Table 3) | fold induction at 50 µM (riboswitch 15D10 [2]; Table 3) | fold induction at 50 µM (riboswitch 15D10 [1]; Table 2) | fold induction at 50 µM (riboswitch 15D10 [2]; Table 2) | other results
1 | C/C(=C(\CCO)SC(=O)c1cccc2c1oc1ccccc12)N(C=O)Cc1cnc(C)nc1N [Compound M148, (Z)—S-(2-(N-((4-amino-2-methylpyrimidin-5-yl)methyl)formamido)-5-hydroxypent-2-en-3-yl) dibenzo[b,d]furan-4-carbothioate] | 153 | 288 |  |  | 
2 | C/C(=C(\CCO)SC(=O)c1cc(C(C)(C)C)cc(C(C)(C)C)c1)N(C=O)Cc1cnc(C)nc1N [Compound M70, (Z)—S-(2-(N-((4-amino-2-methylpyrimidin-5-yl)methyl)formamido)-5-hydroxypent-2-en-3-yl) 3,5-di-tert-butylbenzothioate] |  |  | 51 | 236 | 
3 | C/C(=C(\CCO)SC(=O)c1cccc(-c2ccccc2)c1)N(C=O)Cc1cnc(C)nc1N [Compound M72, (Z)—S-(2-(N-((4-amino-2-methylpyrimidin-5-yl)methyl)formamido)-5-hydroxypent-2-en-3-yl) [1,1′-biphenyl]-3-carbothioate] |  |  | 236 | 295 | 
4 | C/C(=C(\CCO)SC(=O)c1ccc(C(C)(C)C)cc1)N(C=O)Cc1cnc(C)nc1N [Compound M114, (Z)—S-(2-(N-((4-amino-2-methylpyrimidin-5-yl)methyl)formamido)-5-hydroxypent-2-en-3-yl) 4-(tert-butyl)benzothioate] |  |  | 50.1 | 88.8 | 
5 | CCOc1ccc2ccccc2c1C(=O)S/C(CCO)=C(/C)N(C=O)Cc1cnc(C)nc1N [Compound M38, (Z)—S-(2-(N-((4-amino-2-methylpyrimidin-5-yl)methyl)formamido)-5-hydroxypent-2-en-3-yl) 2-ethoxynaphthalene-1-carbothioate] |  |  | 1.2 | 1 | 
6 | C/C(=C(\CCO)SC(=O)c1c(F)cccc1Oc1ccccc1Cl)N(C=O)Cc1cnc(C)nc1N [Compound M142, (Z)—S-(2-(N-((4-amino-2-methylpyrimidin-5-yl)methyl)formamido)-5-hydroxypent-2-en-3-yl) 2-(2-chlorophenoxy)-6-fluorobenzothioate] | 85.3 | 184 |  |  | 
7 | C/C(=C(\CCO)SC(=O)c1ccccc1Oc1c(Cl)cccc1Cl)N(C=O)Cc1cnc(C)nc1N [Compound M138, (Z)—S-(2-(N-((4-amino-2-methylpyrimidin-5-yl)methyl)formamido)-5-hydroxypent-2-en-3-yl) 2-(2,6-dichlorophenoxy)benzothioate] | 228 | 195 |  |  | 
8 | C/C(=C(\CCO)SC(=O)C12CC3CC(CC(C3)C1)C2)N(C=O)Cc1cnc(C)nc1N [Compound M53, S—((Z)-2-(N-((4-amino-2-methylpyrimidin-5-yl)methyl)formamido)-5-hydroxypent-2-en-3-yl) (3r,5r,7r)-adamantane-1-carbothioate] |  |  | 2.4 | 57 | 
9 | C/C(=C(\CCO)SC(=O)c1c(F)cccc1OCc1ccccc1)N(C=O)Cc1cnc(C)nc1N [Compound M129, (Z)—S-(2-(N-((4-amino-2-methylpyrimidin-5-yl)methyl)formamido)-5-hydroxypent-2-en-3-yl) 2-(benzyloxy)-6-fluorobenzothioate] | 10.9 | 167 |  |  | 
10 | C/C(=C(\CCO)SC(=O)c1ccc(C(C)(C)C)cc1Oc1cccc(C(C)(C)C)c1)N(C=O)Cc1cnc(C)nc1N [Compound M156, (Z)—S-(2-(N-((4-amino-2-methylpyrimidin-5-yl)methyl)formamido)-5-hydroxypent-2-en-3-yl) 4-(tert-butyl)-2-(3-(tert-butyl)phenoxy)benzothioate] | 0.06 | 10.1 |  |  | 
11 | C/C(=C(\CCO)SCOC(=O)c1cccc2ccccc12)N(C=O)Cc1cnc(C)nc1N [Compound M97, (Z)-((2-(N-((4-amino-2-methylpyrimidin-5-yl)methyl)formamido)-5-hydroxypent-2-en-3-yl)thio)methyl 1-naphthoate] |  |  | 299 | 126 | 
12 | C/C(=C(\CCO)SC(=O)c1c(Cl)cccc1Oc1ccccc1)N(C=O)Cc1cnc(C)nc1N [Compound M127, (Z)—S-(2-(N-((4-amino-2-methylpyrimidin-5-yl)methyl)formamido)-5-hydroxypent-2-en-3-yl) 2-chloro-6-phenoxybenzothioate] | 0.46 | 7.39 |  |  | 
13 | C/C(=C(\CCO)SCOC(=O)c1cc2ccccc2c2ccccc12)N(C=O)Cc1cnc(C)nc1N [Compound M98, (Z)-((2-(N-((4-amino-2-methylpyrimidin-5-yl)methyl)formamido)-5-hydroxypent-2-en-3-yl)thio)methyl phenanthrene-9-carboxylate] |  |  | 13.6 | 57.7 | 
14 | C/C(=C(\CCO)SC(=O)c1cccc2c(Br)cccc12)N(C=O)Cc1cnc(C)nc1N [Compound M111, (Z)—S-(2-(N-((4-amino-2-methylpyrimidin-5-yl)methyl)formamido)-5-hydroxypent-2-en-3-yl) 5-bromonaphthalene-1-carbothioate] |  |  | 181 | 175 | 
15 | C/C(=C(\CCO)SC(=O)c1cc(Cl)ccc1Oc1ccc(F)cc1)N(C=O)Cc1cnc(C)nc1N [Compound M134, (Z)—S-(2-(N-((4-amino-2-methylpyrimidin-5-yl)methyl)formamido)-5-hydroxypent-2-en-3-yl) 5-chloro-2-(4-fluorophenoxy)benzothioate] | 557 | 408 |  |  | 
16 | C/C(=C(\CCO)SC(=O)c1c(C)cccc1Oc1ccccc1)N(C=O)Cc1cnc(C)nc1N [Compound M128, (Z)—S-(2-(N-((4-amino-2-methylpyrimidin-5-yl)methyl)formamido)-5-hydroxypent-2-en-3-yl) 2-methyl-6-phenoxybenzothioate] | 0.56 | 7.87 |  |  | 
17 | C/C(=C(\CCO)SC(=O)c1ccc(Oc2cccc(Cl)c2)cc1C)N(C=O)Cc1cnc(C)nc1N [Compound M151, (Z)—S-(2-(N-((4-amino-2-methylpyrimidin-5-yl)methyl)formamido)-5-hydroxypent-2-en-3-yl) 4-(3-chlorophenoxy)-2-methylbenzothioate] | 20.5 | 231 |  |  | 
18 | C/C(=C(\CCO)SC(=O)c1ccccc1Oc1ccccc1Cl)N(C=O)Cc1cnc(C)nc1N [Compound M136, (Z)—S-(2-(N-((4-amino-2-methylpyrimidin-5-yl)methyl)formamido)-5-hydroxypent-2-en-3-yl) 2-(2-chlorophenoxy)benzothioate] | 132 | 263 |  |  | 
19 | C/C(=C(\CCO)SC(=O)C(C)(C)Cc1ccccc1)N(C=O)Cc1cnc(C)nc1N [Compound M55, (Z)—S-(2-(N-((4-amino-2-methylpyrimidin-5-yl)methyl)formamido)-5-hydroxypent-2-en-3-yl) 2,2-dimethyl-3-phenylpropanethioate] |  |  | 2.1 | 9 | 
20 | C/C(=C(\CCO)SC(=O)c1ccccc1Oc1ccccc1)N(C=O)Cc1cnc(C)nc1N [Compound M113, (Z)—S-(2-(N-((4-amino-2-methylpyrimidin-5-yl)methyl)formamido)-5-hydroxypent-2-en-3-yl) 2-phenoxybenzothioate] | 265 | 348 | 213 | 272 | 
21 | C/C(=C(\CCO)SC(=O)c1c(C)cc(Oc2ccccc2)cc1F)N(C=O)Cc1cnc(C)nc1N [Compound M150, (Z)—S-(2-(N-((4-amino-2-methylpyrimidin-5-yl)methyl)formamido)-5-hydroxypent-2-en-3-yl) 2-fluoro-6-methyl-4-phenoxybenzothioate] | 12.3 | 12 |  |  | 
22 | C/C(=C(\CCO)SCOC(=O)C(C)C)N(C=O)Cc1cnc(C)nc1N [Compound M16, (Z)-((2-(N-((4-Amino-2-methylpyrimidin-5-yl)methyl)formamido)-5-hydroxypent-2-en-3-yl)thio)methyl isobutyrate] |  |  |  |  | effect on luciferase expression from Luci-15D10 (riboswitch 15D10 [1]; FIG. 9A, 9C): increased; relative potency in inducing luciferase expression (riboswitch 15D10 [2]; AML 12 cells, compared with fursultiamine or within groups): more potent than fursultiamine
23 | C/C(=C(\CCO)SC(=O)c1ccccc1Oc1ccc2ccccc2c1)N(C=O)Cc1cnc(C)nc1N [Compound M140, (Z)—S-(2-(N-((4-amino-2-methylpyrimidin-5-yl)methyl)formamido)-5-hydroxypent-2-en-3-yl) 2-(naphthalen-2-yloxy)benzothioate] | 175 | 192 |  |  | 
